The record followed here is patent EP0043274A2, “Antithrombotic treatment” (priority 1980, dated 1982).

In test [1] the test system is human plasma. Type of test: biochemical.
Test [2] deals with human plasma. It counts as biochemical. The source holds these as a separate data set.
The mark [3] stands for this setting: coded agents 0.5mg/ml, […], control 12.92.
[4] abbreviates: 0.5 mg/ml, two different days, control 42.6 / 42.10.
The mark [5] stands for this setting: amine hydrochlorides, control plasma 12.5.
Setting [6] is: amine hydrochlorides, control plasma 13.0.
Where [7] appears, read: amine hydrochlorides, control plasma 13.5.
[8] abbreviates: amine hydrochlorides, control plasma 31.2.
Where [9] appears, read: amine hydrochlorides, control plasma 31.3.
Where [10] appears, read: amine bisulfites, control plasma 12.8 / 13.1.
Where [11] appears, read: amine bisulfites, control plasma 13.1 / 13.0.
Where [12] appears, read: in vitro, concentration not given.
Setting [13] is: amine bisulfites, control plasma 37.5 / 38.2.
Where [14] appears, read: amine bisulfites, control plasma 37.8 / 39.2.
Where [15] appears, read: 0.5 mg/ml, two different days, control 13.40.

Where two headings read alike, the source gives them in different places.

In test [1], `C[N+](C)(C)C` [Tetramethyl Ammonium Bromide, reference compound] showed a PT sec. of 12.5 s. Further, the “PT (effect in words)” value in test [1] (in vitro, 0.5 mg/ml) is “little or no effect”. This compound also displayed a PTT sec in test [2] (0.5 mg/ml, human plasma, control 38.1) of 38.5 s. For the same compound, the “PTT (effect in words)” value in test [2] (in vitro, 0.5 mg/ml) is “little or no effect”.
Take `O=S(O)CO` [SO2, Sodium formaldehyde sulfoxalate, reference compound]: the “PT” value in test [1] was found to be 13.8 s; in test [1] (setting [3]), 14.94 s. In addition, the “PTT sec” value in test [2] (setting [4]) is listed as 45.1 (53.8) sec. Moreover, the “PTT” value in test [2] (coded agents 0.5mg/ml, […], control 43.38) is 49.22 s.
Consider “2-octanome [Example 2-octanome, reference compound]”, for which the “PT (effect in words)” value in test [1] (in vitro, 0.5 mg/ml) is reported as “minimal effect”. The “PTT (effect in words)” value in test [2] (in vitro, 0.5 mg/ml) is given as “minimal effect”.
Turning to `CCN(CC)C(=S)S` [SO4, Sodium diethyl dithiocarbamate, reference compound], the “PT” value worked out at 13.6 s in test [1] and 14.02 s in test [1] (setting [3]). The “PTT” value is 48.1 s in test [2] (setting [4]) and 49.60 s in test [2] (coded agents 0.5mg/ml, mean values of 5 replications, control 43.38).
With `CCN(CC)CC.Cl` [TRIETHYLAMINE HYDROCHLORIDE, reference compound], in test [1], the “PT 1” value was 12.8, the “PT 2” value came out at 12.7 and the “PT 3” value is recorded as 13.5. Further, in test [2], the “PTT 1” value is 32.0, the “PTT 2” value came out at 31.5 and the “PTT 3” value was 34.5.
Regarding “Sodium thiosulfate [SI6, reference compound]”, the “PT” value in test [1] is 13.5 s. Further, the “PTT” value in test [2] is 46.2 s.
Take cyclohexane [reference compound]: the “PT (effect in words)” value in test [1] (in vitro, 0.5 mg/ml) was “minimal effect”. Further, the “PTT (effect in words)” value in test [2] (in vitro, 0.5 mg/ml) was “minimal effect”.
As to `C=CCNCC=C.Cl` [DIALLYL AMINE HYDROCHLORIDE, reference compound], in test [1] (setting [5]), the “PT 2” value is 13.1. The “PT 1” value in test [1] (setting [6]) is 12.8. Also, the “PT 3” value in test [1] (setting [7]) turned out to be 13.5. Moreover, the “PTT 1” value in test [2] is reported as 30.5. For the same compound, the “PTT 3” value in test [2] (setting [8]) came to 30.4. Besides, in test [2] (setting [9]), the “PTT 2” value was 30.7.
Turning to `Cl.c1ccncc1` [PYRIDINE HYDROCHLORIDE (CRYSTALS), PYRIDINE HYDROCHLORIDE, reference compound], in test [1] (HYDROCHLORIDE), the “PT 1” value is 12.9, the “PT 2” value worked out at 12.8 and the “PT 3” value was 14.0. In test [2] (HYDROCHLORIDE), the “PTT 1” value came out at 31.3, the “PTT 2” value is given as 31.1 and the “PTT 3” value worked out at 32.2.
For `C=CCNCC=C` [DIALLYL AMINE], in test [1] (setting [10]), the “PT REPLICATIONS 1” value turned out to be 13.4 and the “PT REPLICATIONS 2” value is 13.7. Moreover, in test [1] (setting [11]), the “PT REPLICATIONS 3” value came to 13.8. Moreover, the “PT (effect in words)” value in test [1] (setting [12]) is “low activity”. In test [2], the “PTT REPLICATIONS 2” value is on record as 39.6. Also, in test [2] (setting [13]), the “PTT REPLICATIONS 1” value was 38.8. Besides, in test [2] (setting [14]), the “PTT REPLICATIONS 3” value worked out at 39.1. The “PTT (effect in words)” value in test [2] (setting [12]) is recorded as “low activity”.
In the case of `Cl.c1ccncc1` [PYRIDINE HYDROCHLORIDE (POWDER), PYRIDINE HYDROCHLORIDE, reference compound], in test [1] (HYDROCHLORIDE), the “PT 1” value was found to be 12.6, the “PT 2” value is 12.5 and the “PT 3” value came to 13.8. In addition, in test [2] (HYDROCHLORIDE), the “PTT 1” value worked out at 30.5, the “PTT 2” value turned out to be 30.8 and the “PTT 3” value is 31.1.
On to `CCCC[N+](CCCC)(CCCC)CCCC.[Br-]` [Tetrabutyl Ammonium Bromide, reference compound], for which, in test [1], the “PT (effect in words)” value was “little or no effect” and the PT sec. came to 12.4 s. Further, in test [2], the “PTT (effect in words)” value was “little or no effect” and the PTT sec was found to be 38.3 s.
Take Na Sulfide [reference compound]: the “PT” value in test [1] (setting [15]) stood at 21.12 s. The “PTT” value in test [2] (setting [4]) stood at 78.50 s.
Turning to `CC(C)=O` [acetone, reference compound], the “PT (effect in words)” value in test [1] (in vitro, 0.5 mg/ml) is listed as “minimal effect”. For the same compound, the “PTT (effect in words)” value in test [2] (in vitro, 0.5 mg/ml) is “minimal effect”.
For the compound `c1ccncc1` [PYRIDINE], in test [1], the “PT REPLICATIONS 1” value is reported as 29.3, the “PT REPLICATIONS 2” value stood at 27.8 and the “PT REPLICATIONS 3” value was found to be 27.2. In test [2], the “PTT REPLICATIONS 1” value is 80.0, the “PTT REPLICATIONS 2” value was determined as 71.1 and the “PTT REPLICATIONS 3” value came to 59.3.
As for `O=S([O-])S(=O)(=O)[O-].[Na+].[Na+]` [Sodium Metabisulfite], in test [1], the “PT” value was determined as 19.56 s, the “PT(seconds) Exp. 1 A” value was determined as 18.5 s and the “PT(seconds) Exp. 2 A” value was 21.9 s. For the same compound, the “PTT(seconds) Exp. 1 A” value in test [2] is 76.9 s. The “PTT” value in test [2] (setting [4]) is 77.75 s.
For the compound Na-hydrosulfite [reference compound], the “PT” value in test [1] (setting [15]) turned out to be 14.4 s. In addition, the “PTT sec” value in test [2] (setting [4]) is listed as 45.2 (39.0) sec.
In the case of `CN(C)C1CCCCC1` [N,N-DIMETHYL CYCLOHEXYL AMINE], in test [1] (setting [10]), the “PT REPLICATIONS 1” value is recorded as 18.9 and the “PT REPLICATIONS 2” value is recorded as 20.4. In addition, the “PT REPLICATIONS 3” value in test [1] (setting [11]) was 19.8. Also, the “PTT REPLICATIONS 2” value in test [2] is 62.1. The “PTT REPLICATIONS 1” value in test [2] (setting [13]) is on record as 60.1. Further, the “PTT REPLICATIONS 3” value in test [2] (setting [14]) is on record as 58.9.
As for `CN1CCOCC1` [4-METHYL MORPHOLINE], in test [1], the “PT REPLICATIONS 1” value came out at 21.3, the “PT REPLICATIONS 2” value came out at 21.5 and the “PT REPLICATIONS 3” value is recorded as 20.4. For the same compound, in test [2], the “PTT REPLICATIONS 1” value is on record as 63.5, the “PTT REPLICATIONS 2” value turned out to be 61.3 and the “PTT REPLICATIONS 3” value came to 60.6.
Turning to Ammonium Sulfite, in test [1], the “PT” value came out at 16.08 s, the “PT(seconds) Exp. 1 A” value turned out to be 14.7 s and the “PT(seconds) Exp. 2 A” value turned out to be 16.9 s. The “PTT(seconds) Exp. 1 A” value in test [2] amounted to 56.5 s. Also, the “PTT” value in test [2] (setting [4]) turned out to be 58.80 s. The “PTT(seconds) Exp. 2 A” value in test [2] (Active Agent 0.5/ml, test sequences A and B, control 50.5 (A), 44.5 (B)) worked out at 65.2 s.
For Na2SO4 [reference compound], in test [1] (setting [15]), the “PT” value amounted to 13.6 s. The “PTT” value in test [2] (setting [4]) turned out to be 44.2 s.
Turning to `Cl.NC1CCCCC1` [CYCLOHEXYL AMINE HYDROCHLORIDE, reference compound], the “PT 2” value in test [1] (setting [5]) came out at 13.6. Also, in test [1] (setting [6]), the “PT 1” value is recorded as 13.8. For the same compound, the “PT 3” value in test [1] (setting [7]) is 13.5. Further, in test [2], the “PTT 1” value is recorded as 32.5. Also, in test [2] (setting [8]), the “PTT 3” value is 34.3. In addition, the “PTT 2” value in test [2] (setting [9]) is 32.7.
Take `CNC1CCCCC1` [N-METHYL CYCLOHEXYL AMINE]: in test [1] (setting [10]), the “PT REPLICATIONS 1” value stood at 20.5 and the “PT REPLICATIONS 2” value turned out to be 20.3. Moreover, the “PT REPLICATIONS 3” value in test [1] (setting [11]) is on record as 20.4. The “PTT REPLICATIONS 2” value in test [2] came to 61.8. Besides, in test [2] (setting [13]), the “PTT REPLICATIONS 1” value came to 60.6. In addition, the “PTT REPLICATIONS 3” value in test [2] (setting [14]) turned out to be 61.6.
benzaldhyde [reference compound]: the “PT (effect in words)” value in test [1] (in vitro, 0.5 mg/ml) was “minimal effect”. Besides, the “PTT (effect in words)” value in test [2] (in vitro, 0.5 mg/ml) is “minimal effect”.
For `NCCO` [ETHANOL AMINE], in test [1] (setting [10]), the “PT REPLICATIONS 1” value stood at 19.3 and the “PT REPLICATIONS 2” value was determined as 20.5. Besides, in test [1] (setting [11]), the “PT REPLICATIONS 3” value was found to be 18.4. For the same compound, the “PTT REPLICATIONS 2” value in test [2] turned out to be 66.1. Besides, the “PTT REPLICATIONS 1” value in test [2] (setting [13]) came out at 65.3. For the same compound, the “PTT REPLICATIONS 3” value in test [2] (setting [14]) is 61.1.
Turning to Na-phosphite [reference compound], in test [1] (setting [15]), the “PT” value worked out at 12.9 s.
